The results in this text go back to paper PMC8403083 (OncoTargets and therapy, 2021).

One test concerns the target T1, CD73 (Mus musculus, UniProt Q61503).
T1 sequence (Q61503 29-551): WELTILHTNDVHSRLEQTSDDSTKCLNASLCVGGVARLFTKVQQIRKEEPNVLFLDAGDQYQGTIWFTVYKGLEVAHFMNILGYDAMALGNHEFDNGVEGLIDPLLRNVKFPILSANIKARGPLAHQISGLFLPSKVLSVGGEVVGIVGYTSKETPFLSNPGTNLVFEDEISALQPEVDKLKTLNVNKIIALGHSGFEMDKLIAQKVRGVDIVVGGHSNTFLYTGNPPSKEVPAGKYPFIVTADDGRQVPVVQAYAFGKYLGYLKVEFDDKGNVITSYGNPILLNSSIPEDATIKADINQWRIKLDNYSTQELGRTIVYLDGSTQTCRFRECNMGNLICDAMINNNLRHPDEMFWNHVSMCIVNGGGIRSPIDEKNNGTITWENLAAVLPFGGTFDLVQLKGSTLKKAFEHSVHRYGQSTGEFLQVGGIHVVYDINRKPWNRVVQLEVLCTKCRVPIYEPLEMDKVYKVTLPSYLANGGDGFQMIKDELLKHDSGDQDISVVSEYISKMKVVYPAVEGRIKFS
Kind of test: CMP hydrolysis by EMT6 cells, Malachite green phosphate detection. It is filed as cell-based.

For another test, the target named is T2, CD73 (5ʹ-Nucleotidase) (Homo sapiens, UniProt P21589).
T2 sequence (P21589 27-547): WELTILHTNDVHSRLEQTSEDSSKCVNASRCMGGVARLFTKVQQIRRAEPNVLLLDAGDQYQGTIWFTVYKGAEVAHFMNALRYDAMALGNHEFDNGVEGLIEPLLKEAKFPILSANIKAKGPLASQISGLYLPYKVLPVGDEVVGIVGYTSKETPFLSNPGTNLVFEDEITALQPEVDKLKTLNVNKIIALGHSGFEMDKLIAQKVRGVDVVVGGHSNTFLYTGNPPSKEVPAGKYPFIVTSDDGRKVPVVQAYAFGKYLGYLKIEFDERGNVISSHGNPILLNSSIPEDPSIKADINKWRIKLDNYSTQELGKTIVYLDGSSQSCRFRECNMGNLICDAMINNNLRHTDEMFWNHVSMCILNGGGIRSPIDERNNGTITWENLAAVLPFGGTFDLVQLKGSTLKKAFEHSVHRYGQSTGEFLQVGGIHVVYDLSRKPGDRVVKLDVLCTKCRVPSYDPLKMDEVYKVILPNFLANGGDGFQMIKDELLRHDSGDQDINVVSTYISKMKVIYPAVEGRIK
Nature of the test: Malachite green phosphate assay, CMP substrate, […] h preincubation. The format is biochemical.

As for `Nc1ncnc2c1ncn2[C@@H]1O[C@H](COP(=O)(O)CP(=O)(O)O)[C@@H](O)[C@H]1O` [AMPCP], the IC50 against CD73 was 130 ± 8 nM; at CD73 (5ʹ-Nucleotidase), 3.8 ± 0.8 nM.

Molecule `O=P(O)(O)COC[C@H]1O[C@@H](n2ncc3c(N4CC5(CCc6ccccc65)C4)nc(Cl)nc32)[C@H](O)[C@@H]1O` [SHR170008, ((((2R,3S,4R,5R)-5-(6-chloro-4-(2ʹ,3ʹ-dihydrospiro[azetidine-3,1ʹ-inden]-1-yl)-1H-pyrazolo[3,4-d]pyrimidin-1-yl)-3,4-dihydroxytetrahydrofuran-2-yl)methoxy)methyl) phosphonic acid] had an IC50 on CD73 of 0.133 ± 0.008 nM.

Broadly, the IC50 is the point on the concentration scale where inhibition reaches its midpoint. Low values mean inhibition by little substance, high ones a need for much substance.
